Measured values: patent US12156867B2, “Melanocortin agents for use in the therapeutic treatment of melanoma, tumors of the gastrointestinal tract, and thyroid carcinoma” (UNIVERSITA' DI PISA, priority 2018, dated 2024)

Experiments:
Assay type in all cases: cell-based
[1] = test system: WM 266-4 human melanoma cell line; assay: In vitro cytotoxicity / antiproliferative effect, cell count after 72 h; conditions: for IC50: Homo sapiens, WM 266-4 cells, 72 h drug exposure, cell proliferation vs vehicle controls
From the text: (§1) The present study used the human melanoma cell lines A-2058 BRAF-mutant (CRL-11147), obtained from ATCC (American Type Culture Collection, Manassas, USA), and WM-266-4 (91061233), obtained from ECACC (European Collection of Authenticated Cell Cultures). In addition, carcinoma cells of the gastrointestinal tract (Caco-2, HT-29) and thyroid carcinoma cells (8305C) were used. The compound ML00253764 was purchased from Tocris Bioscience (Bristol, UK), and solubilized in sterile water. The compound Vemurafenib was obtained from Selleckchem (Munich, Germany) and dissolved in dimethyl sulfoxide (DMSO). For the in vitro studies, both drugs were dissolved in a stock solution at 10 mM concentration. In the same experiment, the concentration of DMSO in the medium of the controls was the same used to obtain the maximum concentration of Vemurafenib in the cell culture media. The biotinylated anti-rabbit IgG antibody and the avidin-biotin complex were purchased from Vector Laboratories (Burlingame, CA, USA), while TO-PRO-3 iodide was from Molecular Probes (Eugene, OR, USA). Anti-MC4R antibody (ab75506) and goat anti-rabbit IgG antibody (Alexa Fluor 488) were purchased from Abcam (Cambridge, MA, USA).
(§2) The two tumor cell lines WM-266-4 and A-2058 were grown in cell culture flasks as monolayers and maintained in EMEM and DMEM, respectively, supplemented with 10% fetal bovine serum (FBS), penicillin (50 IU/ml), streptomycin (50 μg/ml) and L-Glutamine (2 mM). The Caco-2, HT-29 and 8305C cells, respectively, were grown in EMEM 20% FBS, McCoy's 5a Medium Modified 10% FBS and RPMI 20% FBS. All reagents used for maintaining tumor cells in culture were purchased from Sigma-Aldrich. The cell lines were maintained in the B5061EK/CO2 mod. Heraeus incubator (Hanau, Germany) at a temperature of 37° C. in a humid atmosphere at 5% CO2. The cells were detached from the culture plates while in the logarithmic growth phase by using a 10× trypsin-EDTA solution and finally plated again to be tested or to keep them in culture.
(§3) The concentration that reduced cell survival by 50% (IC50) compared to controls was finally calculated with GraphPad Prism (version 5.0, San Diego, CA). The simultaneous combination of Vemurafenib and ML00253764 was assessed in the 2 melanoma lines for 72 hours using the aforementioned compounds in a fixed molar ratio of 1:10. The assessment of the level of interaction (synergism, additivity or antagonism) between the compounds ML00253764 and Vemurafenib was performed with the Combination Index (CI) method, according to which CI=1 indicates an additive effect, CI>1 an antagonistic effect and CI<1 a synergistic effect.

[2] = test system: A-2058 human melanoma cell line; assay: as above; conditions: A-2058 cells; for IC50: Homo sapiens, A2058, 72 h drug exposure, cell proliferation vs vehicle controls
From the text: as §1, §2, §3

[3] = test system: A-2058 human melanoma cells; assay: Apoptosis visualised by TO-PRO3 iodide nuclear staining, confocal microscopy; conditions: A-2058 cells, 10 nM, 72 h
Experimental: (§4) In order to assess the apoptotic activity, the melanoma cells were plated at 2×10^5 in sterile Petri dishes. The analysis of apoptosis was performed on WM-266-4 and A-2058 cell lines after treatment with the compound ML00253764 at the experimental IC50 obtained after 72 hours. After the treatment, the cells were scraped off and recovered with their medium into blind ended tubes and counted in the Burker chamber. An aliquot containing 50,000 cells was centrifuged for 10 minutes at 800 rpm, the pellet thus obtained was lysed with an appropriate volume of lysis buffer for 30 minutes at room temperature, then again centrifuged at 200 g for 10 minutes. The supernatant was used for apoptosis analysis by ELISA assay (Cell Death detection ELISA PLUS, Roche). The ELISA apoptosis assay was performed in 96-well microplates and the absorbance reading was performed by using the Thermo labsystems Multiskan Spectrum reader (M-Medical, MI). To visualize the apoptotic process, 2×10^4 A-2058 cells were plated on slides in a 12-well plate and treated for 72 hours with the compound ML00253764 at a concentration of 10 nM. At the end of the incubation with the drug, the cells were washed with PBS, fixed and stained with TO-PRO3 iodide. The coverslips were finally mounted, and the slides viewed under a Leica TCS SP5 confocal laser scanning microscope. […]

[4] = test system: WM 266-4 human melanoma cells; assay: Apoptosis analysis by Cell Death Detection ELISA Plus; conditions: WM 266-4 cells, 35 nM (corresponding to the IC50), 72 h
Experimental: as §4

[5] = test system: A-2058 human melanoma cells; assay: as above; conditions: A-2058 cells, 10 nM (corresponding to the IC50), 72 h
Experimental: as §4

[6] = test system: 8305C human thyroid carcinoma cell line; assay: In vitro cytotoxicity / antiproliferative effect, cell count after 72 h; conditions: 8305C cells
From the text: as §1, §2, §3
(§5) The related IC50s were calculated at the end of the experiments.

[7] = test system: HT-29 human carcinoma cell line of the gastrointestinal tract; assay: as above; conditions: HT-29 cells
From the text: as §1, §2, §3, §5

[8] = Homo sapiens, 72 h drug exposure, cell proliferation vs vehicle controls

Structure (SMILES) | IC50 [1] | IC50 [2] | apoptosis, TO-PRO3 nuclear fluorescence [3] | apoptotic signal (ELISA, cytosolic nucleosomes) [4] | pro-apoptotic activity (ELISA, cytosolic nucleosomes) [5] | antiproliferative effect ([6]; 10 nM, 72 h) | IC50 [6, 8] | antiproliferative effect ([7]; 10 nM, 72 h) | IC50 [7, 8] | antiproliferative effect ([1]; WM-266-4 cells, 10 nM, 72 h) | antiproliferative effect ([2]; 10 nM, 72 h)
CCCS(=O)(=O)Nc1ccc(F)c(C(=O)c2c[nH]c3ncc(-c4ccc(Cl)cc4)cc23)c1F [Vemurafenib] | 46.6 nM | 526 nM | – | – | – | – | – | – | – | – | –
COc1ccc(Br)cc1CCc1c(F)cccc1C1=NCCN1 [ML00253764, 2-[2-[2-(5-bromo-2-methoxyphenyl)-ethyl]-3-fluorophenyl]-4,5-dihydro-1H-imidazole] | 33.7 nM | 11.1 nM | increase in fluorescence with “shrunken” nuclei | significant increase in the apoptotic signal | significant pro-apoptotic activity | significant antiproliferative effect | 7670 nM | significant antiproliferative effect | 806 nM | significant antiproliferative effect | significant antiproliferative effect
